In a melting point compilation (Tetko et al.; mined from patent text by program, amines drawn as free bases though some values may be those of a salt) one finds melting point data, which are given here for 87 molecules.

Where only a bound is given, the exact number is not on record here.

For `CCCCc1nc(Cl)c(C=O)n1Cc1ccc2oc(-c3ccccc3C#N)c(OC)c2c1`, the melting point (in general, the temperature, or range, at which the solid turns liquid) fell in the range of 118 to 120 °C.

Molecule `CCn1cc(-c2c(-c3ccccc3F)nn3ccncc23)ccc1=O` displayed a melting point of 173 to 174 °C.

Regarding `CC(C)(C)c1nc(-c2nn(-c3ccc(F)cc3F)c3c2C2CCC3C2)n[nH]1` (configuration not stated), the melting point lay in the range of 268 to 269 °C.

For the molecule `COc1ccc(C(=O)Nc2c(Cl)cncc2Cl)c2c1OCC2CC(=O)O` (configuration not stated), the melting point is 259 to 263 °C.

`CCCCS(=O)(=O)Nc1cc(C(=O)Nc2ccccc2)ccc1OC` registered a melting point of 182 to 183 °C.

`CCOP(=O)(Cc1ccccc1NC(=O)C1=Cc2cc(C3CCCCC3)ccc2CC1)OCC` registered a melting point of 102 to 103 °C.

`CCn1ncc(C(=O)c2ccc(S(C)(=O)=O)c(C(=O)OC)c2C)c1O` displayed a melting point of 150 to 152 °C.

On to `CCCCCCCCCCCCCCCCCC(O)c1ccc(C(=O)O)c(Cl)c1` (configuration not stated), for which the melting point lay in the range of 93 to 96 °C.

On to `CNC(=O)c1cccc(C(=O)OC)c1`, for which the melting point lay in the range of 128 to 130 °C.

As for `Cc1cc(C)c2cccc(OCc3c(Cl)ccc(S(=O)(=O)N4CCC[C@H]4C(=O)N4CCCNCC4)c3Cl)c2n1`, the melting point was 65 °C.

Turning to `Cn1cnc(COc2ccc(-c3cc(-c4c[nH]nc4-c4ccccn4)ccn3)cc2)c1`, the melting point amounted to 104 °C.

On to `CC(Cc1ccc(Oc2cc(N3CCN(Cc4ccccc4)CC3)nc(NCc3ccccc3)n2)cc1)(Oc1ccccc1)C(=O)O` (configuration not stated), for which the melting point fell in the range of 104 to 106 °C.

The molecule `CC1CCCC(C)N1C(=O)CSC#N` (configuration not stated) gave a melting point of 81 to 82 °C.

With `O=C1NCCn2c1nc1c2CCCC1`, the melting point is greater than 250 °C.

For the molecule `CC(=O)NCC(C)(C)c1ccc(C(=O)Nc2cn3cc(Cl)ccc3n2)cc1`, the melting point lay in the range of 220 to 222 °C.

The molecule `OC(CCc1ccc(Br)cc1)Cn1ccnc1` (configuration not stated) gave a melting point of 121 to 122 °C.

`Cc1cccc(Nc2nc(-c3cn[nH]c3)c(F)s2)n1` came in with a melting point of 204 °C.

In turn, `Cc1ccc(CCC(CO)n2cnc(C(N)=O)c2)cc1` (configuration not stated) came in with a melting point of 138 to 141 °C.

`CCCCC(=O)Nc1cccc(C(=O)OC)c1`: the melting point was 101 to 102 °C.

With `COc1ccc(C(=O)CSCc2ccncc2)cc1`, the melting point was 64 to 65 °C.

Take `C=CC(=O)O[C@H]1CC[C@H](c2cccc(F)c2F)CC1`: the melting point was in the range of 72.9 to 73.6 °C.

As for `CC(=O)NC(C)C(C)n1ncn(-c2ccc(N3CCN(c4ccc(O)cc4)CC3)cc2)c1=O` (configuration not stated), the melting point was 264 °C.

The molecule `CCNC(=S)NNC(=O)C(F)(F)F` displayed a melting point of 170 °C.

As to `CCCCc1nccn1Cc1c(F)cccc1Cl`, the melting point lay within 106 to 108 °C.

The molecule `O=C(NCCO)Nc1ccccc1` showed a melting point of 120 to 122 °C.

Turning to `CCOCc1nc2c(N)nc3cc(OCc4ccccc4C)ccc3c2n1CC(C)C`, the melting point lay within 216 to 218 °C.

In turn, `Cc1[nH]c(=O)[nH]c1C(=O)c1ccccc1` returned a melting point of 250 to 254 °C.

For `CC1=C(C(=O)OC(C)(C)C)C(c2cccc([N+](=O)[O-])c2)N(C(=O)N(C)C)C(=O)N1` (configuration not stated), the melting point was 187 to 188 °C.

For the molecule `C=CCn1c(=O)c(C(=O)OCC)c(O)c2ccc(C)nc21`, the melting point fell in the range of 110 to 112 °C.

Turning to `C=C(C)c1ccc(OCCO)cc1`, the melting point lay within 78 to 80 °C.

Take `CC(C)(C)COCCOc1ccc(OCC(O)CNCCNC(=O)N2CCOCC2)cc1` (configuration not stated): the melting point turned out to be 90 °C.

The molecule `CC(C)(C)Sc1c(CC(C)(C)C(=O)O)n(Cc2ccc(Cl)cc2)c2ccc(OCc3cccnc3)cc12` showed a melting point of 206 to 208 °C.

With `CCO[C@@H](Cc1ccc(O)cc1)C(=O)O`, the melting point is 105 °C.

On to `COc1cc(S(C)(=O)=O)ccc1-c1nc2cnccc2[nH]1`, for which the melting point lay within 234 to 235 °C.

The molecule `N#CC(C=N)CC(=O)c1ccccc1F` (configuration not stated) gave a melting point of 120 to 122 °C.

`Cc1nc(N2CCN(Cc3ccccc3C(F)(F)F)C2=O)sc1C(=O)NCc1ccccc1` yielded a melting point of 138 to 140 °C.

`CN(Cc1ccc(Cl)cc1)S(=O)(=O)c1cn(S(=O)(=O)N(C)C)cn1` returned a melting point of 112 to 114 °C.

For `COc1ccc(Cc2cc3ccccc3c(=O)[nH]2)cc1`, the melting point was in the range of 216 to 218 °C.

In turn, `CCOP(=O)(OCC)c1c(C)c2c(c(C)c1-c1c(OC)ccc3ccccc13)CN(S(=O)(=O)c1ccc(C)cc1)C2` returned a melting point of 58 to 60 °C.

As to `CCNC1C(C)CN(c2c(F)c(N)c3c(=O)c(C(=O)O)cn(C4CC4)c3c2OC)CC1C` (configuration not stated), the melting point was in the range of 202 to 204 °C.

Take `COc1ccc(-c2c(C(=O)O)c(=O)n(Cc3ccccc3OC)c3c2oc2cc(N)ccc23)cc1`: the melting point was 245 °C.

For `N#CCC1(c2onc(-c3ccc(O)cc3)c2-c2ccccc2)CC1`, the melting point lay within 189 to 190 °C.

In the case of `COC=C(C#C[Si](C)(C)C)C(=O)OC`, the melting point lay in the range of 70 to 72 °C.

On to `COc1nc(N)c2c(OC)c(OC)cc(Cl)c2n1`, for which the melting point lay within 203 to 204 °C.

As for `CC(C)Oc1ccc(N2CCCNCC2)cc1`, the melting point was 62 to 64 °C.

As to `CCOC(=O)C(=NOC)c1nnc(C)s1`, the melting point lay within 79 to 81 °C.

Molecule `CC(=O)N1c2ccc(-c3ccc(-c4nnn[nH]4)cc3)cc2C(Nc2ccc(Cl)cc2)CC1C` (configuration not stated) yielded a melting point of 250 °C.

Molecule `O=C(N[C@H](Cc1ccc(C(F)(F)F)cc1)[C@@H](O)c1ccc(F)cc1)c1ccc(CO)c2ccccc12` (racemic) came in with a melting point of 202 to 203 °C.

Take `COc1cc(COc2nn(-c3ccccc3)cc2/C=C/c2csc(C(C)C)n2)ccc1OCc1nc(-c2ccc(CC(=O)O)cc2)oc1C`: the melting point is 107 to 109 °C.

Take `COCCNC(=O)c1cc(-c2ccccc2)c(=O)[nH]c1-c1c(Cl)cccc1C#N`: the melting point lay in the range of 252 to 255 °C.

Take `CC(Oc1ccccc1Cl)c1nnc(C2C(O)NC(=O)N2C)s1` (configuration not stated): the melting point is 122 to 124 °C.

In the case of `Cc1cc(CCc2cc(C)cc(C(C)(C)C)c2O)c(O)c(C(C)(C)C)c1`, the melting point lay within 104 to 105 °C.

In the case of `CCN1CCN(CC(=O)OCCOC)C(=O)c2ccc(Nc3ncc(Cl)c(Nc4ccccc4C(=O)NC)n3)cc21`, the melting point fell in the range of 198 to 202 °C.

In the case of `Cc1ccc(-c2ccc3c(c2)C=C(C(=O)NC2CCN(CC4=CCCCCCC4)CC2)CCO3)cc1`, the melting point was 148 to 151 °C.

For `Nc1nc2cccnc2c2c1ncn2Cc1cc(-c2ccc(F)cc2)no1`, the melting point lay in the range of 265 to 266 °C.

In turn, `CCCP(=O)(CCC)Cc1ccc(NC(=O)/C=C/c2cccc(-c3ccc(C)cc3)c2)cc1` displayed a melting point of 225 to 227 °C.

Regarding `COc1ccc(-c2nc(N3CCOCC3)c3sc(NS(=O)(=O)c4cccc(/C=C/C(=O)NO)c4)cc3n2)cn1`, the melting point is greater than 300 °C.

Molecule `COc1ccc(-c2nc3cc(Cl)c(Cl)cc3[nH]2)cc1[N+](=O)[O-]` displayed a melting point of 250 °C.

`COC(=O)c1cccc(C2C(C(=O)c3ccc(OC)cc3)=C(O)C(=O)N2c2nnc(C)s2)c1` (configuration not stated) displayed a melting point of 218 °C.

Consider `CSc1cc(C)nc(SC)c1NC(=O)CCCCCCCSc1nc2c(C)c(Cl)cc(C(C)C)c2o1`, for which the melting point was in the range of 128 to 131 °C.

For `O=C(OC(=O)c1cn(-c2ccccc2)nc1-c1ccc([N+](=O)[O-])o1)c1cn(-c2ccccc2)nc1-c1ccc([N+](=O)[O-])o1`, the melting point lay in the range of 262 to 264 °C.

Turning to `COc1ccc(-c2ccc3c(c2)CCc2nn(-c4ccccn4)c(O)c2-3)cc1`, the melting point was in the range of 159 to 160 °C.

Molecule `N#Cc1oc(-c2ccc(Cl)cc2)c2ccccc12` returned a melting point of 128 to 130 °C.

Consider `O=c1c(C(F)(F)F)cn(C2CC(O)C(CO)O2)c(=O)n1C1CCCO1` (configuration not stated), for which the melting point was in the range of 127 to 128 °C.

`CN1C[C@@H](C(=O)OCc2ccccc2)N(C(=O)OCc2ccccc2)C1=O` gave a melting point of 120 to 122 °C.

`Cc1ccc(-c2ccc(-c3ccccc3)s2)s1`: the melting point came out at 102 °C.

The molecule `CCC(CC)(C(=O)N(C)C)n1cc(C)c(-c2ccccc2)n1` came in with a melting point of 135 to 136 °C.

With `CCCCSc1cc(C(=O)O)cc(N=Nc2cc(C(=O)O)cc(SCCCC)c2C(=O)c2ccccc2)c1C(=O)c1ccccc1`, the melting point fell in the range of 102 to 103 °C.

The molecule `CC(OC1CCCCO1)C1CCC2C3CC=C4CC(O)CC(O)C4(C)C3CCC12C` (configuration not stated) showed a melting point of 122 to 124 °C.

As for `O=C(OCc1cc(F)nc(F)c1F)c1ccccc1`, the melting point is 73 to 76 °C.

On to `Cc1cccc(-c2nc(N)sc2-c2ccc(F)c(-c3cnn(C)c3)c2)n1`, for which the melting point lay within 153 to 155 °C.

Turning to `CN1CCC(c2c[nH]c3ccc(Sc4ccccn4)cc23)CC1`, the melting point came to 83 °C.

On to `C=CCc1cc(C(=O)OC(C)C)ccc1O`, for which the melting point fell in the range of 79 to 80 °C.

As for `Cc1n[nH]c2ccc(C3C(C#N)=C(C(F)F)NC(C(F)F)=C3C#N)cc12`, the melting point stood at 289 °C.

In turn, `CNC(=O)c1cccc(NC(=O)Cc2ccc3c(c2)CC(C)(C)O3)c1` displayed a melting point of 92 to 93 °C.

`COc1ccc(C(=O)C(C(=O)Nc2ccccc2Cl)N2C(=O)c3ccccc3C2=O)cc1[N+](=O)[O-]` (configuration not stated) registered a melting point of 203 to 205 °C.

As to `Cc1ccc(S(=O)(=O)N2CCC(Sc3ccc(Cl)cc3)CC2)cc1`, the melting point is 112 to 114 °C.

In turn, `O=C(O)c1cn(-c2cccc(I)c2)cn1` returned a melting point of 229 to 230 °C.

Take `CCOc1c(C=NO)c(=O)n(C)c(=O)n1C`: the melting point was found to be 115 °C.

`O=S(=O)(NCCCN1CCOCC1)C(F)(F)F`: the melting point lay in the range of 95 to 97 °C.

For the molecule `O=C(NCc1ccccc1)c1cc([N+](=O)[O-])ccc1N[C@H]1CC[C@H](O)CC1`, the melting point is 233 to 234 °C.

Consider `CCOC(=O)CCc1ccc2c3ccccc3n(Cc3ccccc3)c2c1C`, for which the melting point is 114 to 115 °C.

With `CCOC(=O)C(C(=O)OCC)c1ccc(NC(=O)c2cc3c(n(CC4CCCCC4)c2=O)CCCCCC3)c(C(F)(F)F)c1`, the melting point was 160 to 162 °C.

The molecule `CCN(CC)C(=O)/C=C(\C)c1ccc(OC(C)c2ccccc2)c(OC(C)(C)C(=O)O)c1` (configuration not stated) came in with a melting point of 117 to 119 °C.

As to `COP(=S)(OC)Oc1nc(F)c(Cl)cc1Cl`, the melting point is less than 20 °C.

Turning to `O=C(O)c1cccc(C(=O)c2ccc(F)cc2)c1`, the melting point stood at 180 °C.

`COc1cccc(Cc2cnc(-c3ccccc3)c(-c3ccccc3)n2)c1`: the melting point was in the range of 65 to 66 °C.
